Test results as given in ChEMBL document CHEMBL3271982, “Synthesis and antiinflammatory properties of N-substituted 4,5-dioxopyrrolidine-3-carboxanilides” (J Med Chem, 1976).
Active and inactive are the calls of the source. No cut-off for these calls is given here.

What was measured:
Rattus norvegicus [1] = test: Antiinflammatory activity in rat assessed as inhibition of carrageenin-induced foot edema at 33 mg/kg, po; assay type: functional, organism-based; design: dose 33 mg/kg
[2] = Ionization constant, pKa of the compound; assay type: physicochemical
Rattus norvegicus [3] = test: Antiinflammatory activity in rat assessed as inhibition of carrageenin-induced foot edema at 100 mg/kg, po; assay type: functional

| SMILES | inhibition (Rattus norvegicus [1]) | pKa [2] | inhibition in vivo at 100 mg/kg (Rattus norvegicus [3]) |
| --- | --- | --- | --- |
| O=C(Nc1ccccc1C(F)(F)F)C1CN(c2ccccc2)C(=O)C1=O (stereo unspecified) | Active | 5.87 | – |
| COc1ccccc1NC(=O)C1CN(c2ccccc2)C(=O)C1=O (stereo unspecified) | Active | 6.19 | – |
| Cc1ccc(NC(=O)C2CN(C)C(=O)C2=O)cc1 (stereo unspecified) | Active | 5.79 | – |
| COc1ccccc1NC(=O)C1CN(C)C(=O)C1=O (stereo unspecified) | Active | 6.08 | – |
| CCOC(=O)c1ccccc1NC(=O)C1CN(C)C(=O)C1=O (stereo unspecified) | Active | 6.49 | – |
| O=C(Nc1ccccc1)C1CN(c2ccccc2)C(=O)C1=O (stereo unspecified) | Active | 5.58 | – |
| O=C(Nc1ccc(C(F)(F)F)cc1)C1CN(c2ccccc2)C(=O)C1=O (stereo unspecified) | Active | – | – |
| CN1CC(C(=O)Nc2ccc(Cl)cc2)C(=O)C1=O (stereo unspecified) | Active | 5.51 | – |
| O=C(Nc1ccc(Cl)cc1)C1CN(c2ccccc2)C(=O)C1=O (stereo unspecified) | Active | – | – |
| CC(=O)Oc1ccccc1C(=O)O [ASPIRIN] | – | – | 50% |
| COc1ccc(NC(=O)C2CN(c3ccccc3)C(=O)C2=O)cc1 (stereo unspecified) | Active | – | – |
| COc1ccc(NC(=O)C2CN(C)C(=O)C2=O)cc1 (stereo unspecified) | Active | 5.84 | – |
| CN1CC(C(=O)Nc2ccccc2)C(=O)C1=O (stereo unspecified) | Active | 5.86 | – |
| O=C(Nc1ccccc1Cl)C1CN(c2ccccc2)C(=O)C1=O (stereo unspecified) | Active | – | – |
| CN1CC(C(=O)Nc2ccc(C(F)(F)F)cc2)C(=O)C1=O (stereo unspecified) | Active | – | – |
| CN1CC(C(=O)Nc2ccc(F)cc2)C(=O)C1=O (stereo unspecified) | Active | 5.55 | – |
